From US4001086A (priority 1976, dated 1977)

Assays:
Cryptococcus neoformans = test: standard agar-dilution assay (MIC); format: cell-based
Excerpt: Antibiotic A-30641 inhibits the growth of bacteria and fungi which are pathogenic to animal and plant life. The minimal inhibitory concentrations (MIC's) at which antibiotic A-30641 inhibited a variety of organisms, using a standard agar-dilution assay, are summarized in Table III.

C. albicans = test: dermal C. albicans infection in rabbits, topical treatment; format: in vivo; conditions: 10 days, 1% solution in propylene glycol
Excerpt: Antibiotic A-30641 is particularly useful when administered topically.

## COC1c2cc(Cl)c(O)cc2ON2C(=O)C3NC(=O)C12SS3 (centres unmarked) [antibiotic A-30641]
Cryptococcus neoformans
  MIC: > 0.156 µg/mL
C. albicans
  lesions caused by a dermal C. albicans infection, severity and size: reduced in severity and size
